Data published in ChEMBL document CHEMBL1201862, “PubChem BioAssay data set” (2004).
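All cell lines were grown in 96-well plates and treated with compound for 48 hours. At the GI50, growth is halved.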 Active and inactive are the calls of the source. Cut-off read from the data, not from the text of the source: active = GI50 up to about 1.1 µM and inactive = higher.

What was measured:
Test in all cases: NCI-60 cell line screen, 48 h
OVCAR-3 = test system: OVCAR-3
A549 = test system: A549
HOP-62 = test system: HOP-62
SK-OV-3 = test system: SK-OV-3
MDA-N = test system: MDA-N
UO-31 = test system: UO-31
HT-29 = test system: HT-29
SF-268 = test system: SF-268
OVCAR-8 = test system: OVCAR-8
PC-3 = test system: PC-3
EKVX = test system: EKVX
DU-145 = test system: DU-145
SNB-75 = test system: SNB-75
M14 = test system: M14
UACC-62 = test system: UACC-62
786-0 = test system: 786-0
Hs-578T = test system: Hs-578T
SF-539 = test system: SF-539
SNB-19 = test system: SNB-19
SK-MEL-5 = test system: SK-MEL-5

Measured: GI50

[N-]=[N+]=Nc1cc(=O)[nH]nc1-c1ccccc1
inactive: OVCAR-3 > 100000 nM | A549 > 100000 nM | HOP-62 > 100000 nM | SK-OV-3 > 100000 nM | MDA-N > 100000 nM | UO-31 > 100000 nM | HT-29 > 100000 nM | SF-268 > 100000 nM | OVCAR-8 > 100000 nM | PC-3 > 100000 nM | EKVX > 100000 nM | DU-145 > 100000 nM | SNB-75 61400 nM | M14 > 100000 nM | UACC-62 > 100000 nM | 786-0 > 100000 nM | Hs-578T > 100000 nM | SF-539 > 100000 nM

COS(C)(=O)=O [METHANESULFONIC ACID METHYL ESTER]
inactive: OVCAR-3 > 2000 nM | A549 > 2000 nM | HOP-62 > 2000 nM | SK-OV-3 > 2000 nM | MDA-N > 2000 nM | SNB-19 > 2000 nM | UO-31 > 2000 nM | HT-29 > 2000 nM | SF-268 > 2000 nM | OVCAR-8 > 2000 nM | PC-3 > 2000 nM | EKVX > 2000 nM | DU-145 > 2000 nM | SNB-75 > 2000 nM | M14 > 2000 nM | UACC-62 > 2000 nM | 786-0 > 2000 nM | Hs-578T > 2000 nM | SF-539 > 2000 nM

Cn1cc2c3ccccc3nc-2c2ccccc21 [ISOCRYPTOLEPINE]
inactive: OVCAR-3 2360 nM | A549 2170 nM | HOP-62 1590 nM | SK-OV-3 1990 nM | MDA-N 2040 nM | SNB-19 2960 nM | UO-31 1400 nM | HT-29 1290 nM | SF-268 2330 nM | OVCAR-8 1600 nM | PC-3 2520 nM | DU-145 2310 nM | SNB-75 1800 nM | M14 1630 nM | SK-MEL-5 1700 nM | UACC-62 1600 nM | 786-0 2100 nM | Hs-578T 2300 nM | SF-539 1720 nM

C=C1C[C@@H](O)[C@@H](Br)C(C)(C)[C@@]12C=CC(=O)CC2
inactive: OVCAR-3 > 100000 nM | A549 > 100000 nM | HOP-62 > 100000 nM | SK-OV-3 > 100000 nM | MDA-N > 100000 nM | SNB-19 > 100000 nM | UO-31 > 96400 nM | HT-29 > 100000 nM | SF-268 > 100000 nM | OVCAR-8 > 100000 nM | PC-3 1500 nM | DU-145 > 100000 nM | SNB-75 > 63200 nM | M14 > 100000 nM | SK-MEL-5 > 100000 nM | UACC-62 > 100000 nM | 786-0 > 100000 nM | Hs-578T > 100000 nM | SF-539 > 100000 nM
